Values of other authors, collected in patent publication US9572781B2, “Orally disintegrating tablet compositions comprising combinations of non-opioid and opioid analgesics” (Adare Pharmaceuticals, Inc., priority 2009, dated 2017).

CC(=O)Nc1ccc(O)cc1 [acetaminophen]
Drug detectable (after about 8 hours): only traces | Time to peak plasma concentrations (following oral administration): 30 to 60 min
